The values below come from patent US9084770B2, “Modulation of insulin like growth factor I receptor expression in cancer” (Antisense Therapeutics, Ltd., priority 2008, dated 2015).

Strand notation (5' to 3'): a small letter for the sugar, then the base; units joined by * are phosphorothioate-linked, units joined directly phosphodiester-linked; [ ] holds rarer units or linkages, { } end groups; capitals alone tell only the bases. e = 2'-O-(2-methoxyethyl) (MOE); [5mC] = 5-methylcytosine; d = 2'-deoxy (DNA)

The data set has as its system human IGF-IR mRNA. The experiment in a line: Antisense inhibition of human IGF-IR mRNA levels by quantitative RT-PCR (Table 1). The arrangement: %INHIB (human IGF-IR mRNA levels): concentration or dose not given beside the values. Format: cell-based. As to conditions: for %INHIB (human IGF-IR mRNA levels): quantitative RT-PCR, averages from 3 experiments; for inhibition of IGF-IR expression (lead compounds): as shown in Table 1. The text has this: Treatment of A549 cell cultures with oligonucleotides targeting IGF-IR is as described in WO 2004/072284.
Quantitation of IGF-IR mRNA levels was accomplished by RT-PCR using the ABI PRISM (trademark) 7600, 7700, or 7900 Sequence Detection System (PE-Applied Biosystems, Foster City, Calif.) according to manufacturer's instructions. This is a closed-tube, non-gel-based, fluorescence detection system which allows high-throughput quantitation of PCR products in real-time. As opposed to standard PCR in which amplification products are quantitated after the PCR is completed, products in real-time quantitative PCR are quantitated as they accumulate. This is accomplished by including in the PCR reaction an oligonucleotide probe that anneals specifically between the forward and reverse PCR primers, and contains two fluorescent dyes. A reporter dye (e.g., FAM or JOE, obtained from either PE-Applied Biosystems, Foster City, Calif., Operon Technologies Inc., Alameda, Calif. or Integrated DNA Technologies Inc., Coralville, Iowa) is attached to the 5′-end of the probe and a quencher dye (e.g., TAMRA, obtained from either PE-Applied Biosystems, Foster City, Calif., Operon Technologies Inc., Alameda, Calif. or Integrated DNA Technologies Inc., Coralville, Iowa) is attached to the 3′-end of the probe. When the probe and dyes are intact, reporter dye emission is quenched by the proximity of the 3′ quencher dye. During amplification, annealing of the probe to the target sequence creates a substrate that can be cleaved by the 5′-exonuclease activity of Taq polymerase. […] With each cycle, additional reporter dye molecules are cleaved from their respective probes, and the fluorescence intensity is monitored at regular intervals by laser optics built into the ABI PRISM (trademark) Sequence Detection System. In each assay, a series of parallel reactions containing serial dilutions of mRNA from untreated control samples generates a standard curve that is used to quantitate the percent inhibition after antisense oligonucleotide treatment of test samples.
PCR reagents were obtained from Invitrogen Corporation, (Carlsbad, Calif.). RT-PCR reactions were carried out by adding 20 μL PCR cocktail (2.5×PCR buffer minus MgCl2, 6.6 mM MgCl2, 375 μM each of dATP, dCTP, […] and dGTP, 375 nM each of forward primer and reverse primer, 125 nM of probe, 4 Units RNAse inhibitor, 1.25 Units PLATINUM (registered trademark) Taq, 5 Units MuLV reverse transcriptase, and 2.5×ROX dye) to 96-well plates containing 30 μL total RNA solution (20-200 ng). The RT reaction was carried out by incubation for 30 minutes at 48° C. Following a 10 minute incubation at 95° C. to activate the PLATINUM (trademark) Taq, 40 cycles of a two-step PCR protocol were carried out: 95° C. for 15 seconds (denaturation) followed by 60° C. for 1.5 minutes (annealing/extension).
Gene target quantities obtained by RT-PCR are normalized using either the expression level of GAPDH, a gene whose expression is constant, or by quantifying total RNA using RiboGreen (trademark) (Molecular Probes, Inc. Eugene, Oreg.). GAPDH expression is quantified by RT-PCR, by being run simultaneously with the target, multiplexing, or separately. Total RNA is quantified using RiboGreen (trademark) RNA quantification reagent (Molecular Probes, Inc. Eugene, Oreg.). Methods of RNA quantification by RiboGreen (trademark) are taught in Jones et al., 1998.
Probes and primers to human IGF-IR were designed to hybridize to the IGF-IR nucleotide sequence, using published sequence information (GenBank accession number NM000875 (SEQ ID NO:76) or M69229 (SEQ ID NO:77) which is the 5′ untranslated of the IGF-IR gene sequence (see FIG. 6).
In accordance with the present invention, a series of antisense compounds were designed to target different regions of the human IGF-IR mRNA or the 5′ untranslated region, using published sequences set forth in NM000875 (SEQ ID NO:77) and M69229 (SEQ ID NO:76). […]

On to “323699 (antisense CTTCAGCTGCTGATAGTCGT; listed as DNA, chemistry not fully specified) [compound 323699]”, for which the “%INHIB (human IGF-IR mRNA levels)” value was 74%.

As for “323698 (antisense GCTGCTGATAGTCGTTGCGG; listed as DNA, chemistry not fully specified) [compound 323698]”, the “%INHIB (human IGF-IR mRNA levels)” value is given as 72%. Take “323768 (antisense GGAGTTTAAAGGACAGTGCC; listed as DNA, chemistry not fully specified) [compound 323768]”: the “%INHIB (human IGF-IR mRNA levels)” value stood at 59%. Still for that read-out and setting: to “175322 (antisense TCCGGGTCACAGGCGAGGCC; listed as DNA, chemistry not fully specified) [compound 175322]” belongs 67%.

Turning to “323747 (antisense CCAGCTTCTCAGCCTCGTGG; listed as DNA, chemistry not fully specified) [compound 323747]”, the “inhibition of IGF-IR expression (lead compounds)” value (“inhibition of IGF-IR expression” below) is “demonstrated inhibition” and the “%INHIB (human IGF-IR mRNA levels)” value stood at 85%. For “323759 (antisense ATTTTGACTGTGAAATCTTC; listed as DNA, chemistry not fully specified) [compound 323759]”, the “%INHIB (human IGF-IR mRNA levels)” value amounted to 13%. For the substance “175297 (antisense TGCTGGTAAACAAGAGCCCC; listed as DNA, chemistry not fully specified) [compound 175297]”, the “%INHIB (human IGF-IR mRNA levels)” value is listed as 61%.

“175295 (antisense AACAAGAGCCCCAGCCTCGC; listed as DNA, chemistry not fully specified) [compound 175295]”: the “%INHIB (human IGF-IR mRNA levels)” value came out at 76%.

With “323718 (antisense ATGGTGGTCTTCTCACACAT; listed as DNA, chemistry not fully specified) [compound 323718]”, the “%INHIB (human IGF-IR mRNA levels)” value was determined as 69%. Still for that read-out and setting: the same measure for “175309 (antisense GCAGAAACGCGGAGTCAAAA; listed as DNA, chemistry not fully specified) [compound 175309]”: 72%; for “323725 (antisense TTTGTGGTCCAGCAGCGGTA; listed as DNA, chemistry not fully specified) [compound 323725]”: 67%; for “323743 (antisense TTGCAGCTGTGGATATCGAT; listed as DNA, chemistry not fully specified) [compound 323743]”: 53%. Still for that read-out and setting: to “175304 (antisense TCGCTGAAGGTCACAGCCGA; listed as DNA, chemistry not fully specified) [compound 175304]” belongs 76%. For the substance “323729 (antisense ATGTTCCAGCTGTTGGAGCC; listed as DNA, chemistry not fully specified) [compound 323729]”, the “%INHIB (human IGF-IR mRNA levels)” value was determined as 72%. Turning to “323731 (antisense GTCCAGGGCTTCAGCCCATG; listed as DNA, chemistry not fully specified) [compound 323731]”, the “%INHIB (human IGF-IR mRNA levels)” value was 74%. Consider “323767 (antisense CCAGCGTGTCTCTCAAATGG; listed as DNA, chemistry not fully specified) [compound 323767]”, for which the “inhibition of IGF-IR expression” value is “demonstrated inhibition” and the “%INHIB (human IGF-IR mRNA levels)” value stood at 84%. On to “323750 (antisense TTTAAAAAGATGGAGTTTTC; listed as DNA, chemistry not fully specified) [compound 323750]”, for which the “%INHIB (human IGF-IR mRNA levels)” value is given as 8%. On the same count and under the same terms, the same measure for “323711 (antisense CCCCCGAGTAATGTTCCTCA; listed as DNA, chemistry not fully specified) [compound 323711]”: 41%; for “323695 (antisense CCTTTTATTTGGGATGAAAT; listed as DNA, chemistry not fully specified) [compound 323695]”: 50%; for “323766 (antisense GCCCATGTCAGTTAAGGGTT; listed as DNA, chemistry not fully specified) [compound 323766]”: 69%. Consider “323733 (antisense CCATGGTGAGGGTCACAGCC; listed as DNA, chemistry not fully specified) [compound 323733]”, for which the “%INHIB (human IGF-IR mRNA levels)” value is recorded as 78%. On the same count and under the same terms, to “323763 (antisense ATCCAAGGATCAGCAGGTCG; listed as DNA, chemistry not fully specified) [compound 323763]” belongs 69%; to “323705 (antisense TTGTAGAAGAGTTTCCAGCC; listed as DNA, chemistry not fully specified) [compound 323705]”, 52%. On the same count and under the same terms, to “323755 (antisense GGAACGTACACATCAGCAGC; listed as DNA, chemistry not fully specified) [compound 323755]” belongs 36%; to “323740 (antisense CCACTCTGCTCTCAAAGAAA; listed as DNA, chemistry not fully specified) [compound 323740]”, 0%; to “323712 (antisense TCTCAATCCTGATGGCCCCC; listed as DNA, chemistry not fully specified) [compound 323712]”, 56%. On the same count and under the same terms, the same measure for “323708 (antisense TCCTTGAGATTGGTCATCTC; listed as DNA, chemistry not fully specified) [compound 323708]”: 41%; for “323756 (antisense ACTCCTTCATAGACCATCCC; listed as DNA, chemistry not fully specified) [compound 323756]”: 26%; for “323735 (antisense ATTTTGTCTTTGGAGCAGTA; listed as DNA, chemistry not fully specified) [compound 323735]”: 65%.

With “175320 (antisense CCAAATCCAGGACACACACA; listed as DNA, chemistry not fully specified) [compound 175320]”, the “%INHIB (human IGF-IR mRNA levels)” value stood at 64%. On the same count and under the same terms, to “175328 (antisense GGTAAACAAGAGCCCCAGCC; listed as DNA, chemistry not fully specified) [compound 175328]” belongs 64%. For the substance “175314 (antisense e[5mC]*eT*e[5mC]*eG*e[5mC]*dT*dG*dA*dA*dG*dG*dT*d[5mC]*dA*d[5mC]*eA*eG*e[5mC]*e[5mC]*eG) [compound 175314]”, the “inhibition of IGF-IR expression” value is reported as “demonstrated inhibition” and the “%INHIB (human IGF-IR mRNA levels)” value is 87%. With “175300 (antisense GCTGGTAAACAAGAGCCCCA; listed as DNA, chemistry not fully specified) [compound 175300]”, the “%INHIB (human IGF-IR mRNA levels)” value was 54%. The same measure, in the same setting: to “323764 (antisense GCTGCTTGCATATTGAAAAA; listed as DNA, chemistry not fully specified) [compound 323764]” belongs 77%.
